Source: patent US20250057910A1, “Application of Polypeptide in Preparation of Product for Preventing or Treating Skin Injury Diseases” (Sichuan Gooddoctor Panxi Pharmaceutical Co., Ltd., priority 2021, published 2025)
Ends that are not written are not given here.

Tested on: SD rats
Assay: Healing of full-layer skin defect wound in SD rats
Assay type: in vivo, rat
Conditions: SD rats, topical once a day, polypeptide 50 μg/cm^2, comparative polypeptide 1 41.90 μg/cm^2, comparative polypeptide 2 52.66 μg/cm^2, Mean ± SD, n = 8
Description: Experimental animals: SD male rats, SPF grade, 6 weeks old, weighing 180-220 g, from Beijing Vital River Laboratory Animal Technology Co., Ltd., with the experimental animal quality certification number of NO.110011220109610345, and the experimental animal use license number of SCXK (Beijing) 2021-0011.
Experimental method: SD rats were randomly divided into […] based on the body weight with 8 animals in each group, namely, vehicle group, the polypeptide group (50 μg/cm^2), comparative polypeptide 1 group (41.90 μg/cm^2) and comparative polypeptide 2 group (52.66 μg/cm^2). The amino acid sequence of comparative polypeptide 1 is Glu-Pro-Val-Pro-Leu; and the amino acid sequence of comparative polypeptide 2 is Pro-Ala-Ala-Glu-Pro-Val-Pro-Leu-Val-Lys-Gln-Glu.
After each experimental rat was anesthetized by intraperitoneal injection of 2% pentobarbital sodium (0.2 mL/100 g), a 2 cm^2 full-layer skin defect wound was prepared at each of both sides of the back spine. After hemostasis of the wound, the corresponding drug was administered at the wound locally by group. Each group was administered once a day, with a dosed volume of 72 μL/wound each time, for 14 consecutive days. After the administration, the wound was covered with a sterile vaseline gauze (5 cm*5 cm), and bandaged with multi-layer sterile gauzes. After the wound surgery, the wound was photographed, and the wound area was recorded as the baseline value (the wound was recorded as Day0). During the administration period, the areas of the wounds were photographed and measured 3 times a week, and the healing was observed.

Substance | Wound healing rate (Day 0 (baseline)) [%] | Wound healing rate (Day 3) [%] | Wound healing rate (Day 5) [%] | Wound healing rate (Day 7) [%] | Wound healing rate (Day 10) [%]
PAAEPVPLVKQE [Comparative polypeptide 2] | 0.00 ± 0.00 | 17.21 ± 22.78 | 50.08 ± 16.55 | 65.26 ± 14.46 | 90.34 ± 3.04
Glu-Pro-Val-Pro-Leu (EPVPL; printed: Glu-Pro-Val-Pro-Leu) [Comparative polypeptide 1] | 0.00 ± 0.00 | 21.13 ± 17.43 | 40.18 ± 17.43 | 68.84 ± 7.64 | 88.90 ± 8.40
